According to article PMC6151435, “Bioactivity In Vitro of Quercetin Glycoside Obtained in Beauveria bassiana Culture and Its Interaction with Liposome Membranes” (Molecules : A Journal of Synthetic Chemistry and Natural …, 2017):

Tests used:
[1] = Fluorescence measurements with MC540, TMA-DPH and DPH probes in liposome membranes; settings: concentration 1–10 μM
Experimental: Small unilamellar liposomes (SUV) consisted of phosphatidylcholine (egg-PC) were prepared in accordance with the methodology described by Gabrielska and Oszmiański. The lipids were dissolved in chloroform (100 mg/mL), evaporated to dryness under nitrogen and under vacuum for another 60 min. Subsequently, a phosphate buffer […] of pH 7.4 was added and liposomes were formed by mechanical shaking. Then SUVs were formed using a 20 kHz sonicator for 15 min. During sonication the samples were thermostated at 0–2 °C. In the study, PC liposomes at a concentration of 0.1 mg/mL in phosphate buffer (pH 7.4) were used. Liposomes prepared according to the presented-above procedure were used to determine the antioxidative activity and in fluorometric studies.
The Q 7-MeGlu and Q effect on the hydrophilic and hydrophobic properties of the membrane was determined using the fluorometric method applying the MC540, TMA-DPH and DPH fluorescence probes according to the procedure described by Strugała et al.. Merocyanine 540 (MC540) is a probe that partitions into the membrane and orients parallel to the glycerol backbones of the lipids. The fluorescence intensity of MC540 emission was determined and expressed as relative intensity change in relation to control as a function of studied compounds concentration. The TMA-DPH and DPH probes are supposed to distribute in the hydrophobic part of the bilayer. All the fluorescent probes were used at 1 μM concentration. The DPH and TMA-DPH stock solutions were prepared in DMF, while the probe MC540 was dissolved in methanol. Liposomes were prepared according to procedure described in Section 3.6.1. […] Fluorescence anisotropy for TMA-DPH and DPH was calculated using the following equation [64]:(5) A=I∥−GI⊥/I∥+2GI⊥ where I∥ and I⊥ are fluorescence intensities observed in directions parallel and perpendicular, respectively to the polarization plane of the exciting wave. […]
The fluorescence experiment was conducted using a Cary Eclipse fluorimeter (Varian, Palo Alto, CA, USA). […]

[2] = biological target: T1, COX-1 (Ovis aries, UniProt P05979); assay: Inhibition of cyclooxygenase 1 (spectrophotometric, TMPD); type: biochemical, sheep; settings: Tris-HCl pH 8.0, room temperature
T1 construct: purchased Sigma-Aldrich
T1 sequence (P05979 25-600): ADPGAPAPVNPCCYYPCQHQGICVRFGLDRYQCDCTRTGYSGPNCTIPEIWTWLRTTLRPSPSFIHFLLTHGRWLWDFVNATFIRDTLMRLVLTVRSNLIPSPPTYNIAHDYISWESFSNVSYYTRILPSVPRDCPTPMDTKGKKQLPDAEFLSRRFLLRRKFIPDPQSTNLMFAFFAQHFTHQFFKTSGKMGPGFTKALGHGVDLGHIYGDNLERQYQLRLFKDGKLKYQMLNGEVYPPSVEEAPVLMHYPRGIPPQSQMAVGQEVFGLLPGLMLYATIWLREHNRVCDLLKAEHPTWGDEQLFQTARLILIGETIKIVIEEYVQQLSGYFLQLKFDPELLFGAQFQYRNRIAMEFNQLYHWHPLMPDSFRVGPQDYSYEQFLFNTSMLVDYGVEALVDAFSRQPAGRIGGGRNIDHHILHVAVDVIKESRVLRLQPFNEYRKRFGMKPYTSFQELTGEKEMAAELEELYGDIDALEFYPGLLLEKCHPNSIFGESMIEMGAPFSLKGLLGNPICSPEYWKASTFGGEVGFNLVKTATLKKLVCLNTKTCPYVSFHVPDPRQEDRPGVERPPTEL
Excerpt: The probes 1,6-diphenyl-1,3,5-hexatriene (DPH), 3-[p-(6-phenyl)-1,3,5-hexatrienyl]propionic acid (DPH-PA), Merocyanine 540 (MC540), and N,N,N-trimethyl-4-(6-phenyl-1,3,5-hexatrien-1-yl)phenylammonium p-toluenesulfonate (TMA-DPH) were purchased from Molecular Probes (Eugene, OR, USA). Tris (hydroxymethyl) aminomethane (Tris:HCl) were obtained from “Chempur” (Piekary Śląskie, Poland). Quercetin (Q) was purchased from Sigma-Aldrich. Yellow powder, ^1H-NMR (DMSO-d6) δH: 6.19 (1H, d, J = 2.1 Hz, H-6), 6.41 (1H, d, J = 2.1 Hz, H-8), 6.89 (1H, d, J = 8.5 Hz, H-5′), 7.54 (1H, dd, J = 8.5, 2.2 Hz, H-6′), 7.68 (1H, d, J = 2.2 Hz, H-2′). ^13C-NMR (DMSO-d6) δC: 93.2 (C-8), 98.0 (C-6), 102.9 (C-10), 114.9 (C-2′), 115.4 (C-5′), 119.8 (C-6′), 121.8 (C-1′), 135.6 (C-3), 144.9 (C-3′), 146.6 (C-2), 147.5 (C-4′), 156.0 (C-9), 160.6 (C-5), 163.7 (C-7), 175.7 (C=O).
This experiment, established on the basis of a modified method given in the work by Jang and Pezzuto [68], was conducted by a spectrophotometric measurement of inhibition of the cyclooxygenases’ activity COX-1 and COX-2. […] The concentrations of studied compounds fluctuated in the range 20–100 µM for Q 7-MeGlu and 5–50 µM for Q. Absorbance of the sample was followed for 3 min by measuring it at 1 min intervals, using a spectrophotometer at a wavelength of 611 nm (Cary 100 Bio, Varian) in relation to a reference sample. […]

Compound	relative changes in anisotropy in the probe TMA-DPH [1]	IC50 [2] [µM]	reduction in intensity of the MC540 probe's fluorescence [1]
CO[C@H]1[C@H](O)[C@@H](O)[C@H](Oc2cc(O)c3c(=O)c(O)c(-c4ccc(O)c(O)c4)oc3c2)O[C@@H]1CO [Q 7-MeGlu, quercetin 7-O-β-D-(4″-O-methyl)glucopyranoside]	5–10%	45.1 ± 2.51	–
O=c1c(O)c(-c2ccc(O)c(O)c2)oc2cc(O)cc(O)c12 [Quercetin, 3,3′,4′,5,7-pentahydroxyflavone]	16–37%	15.7 ± 1.73	29–56%
